Laboratory results as given in the supplement of paper PMC10307832.

Experiments:
Assay in all cases: relative viability (nuclei count vs DMSO), 5 days (fraction); higher = more cells survive
RERF-LC-KJ = test system: RERF-LC-KJ
Summary of the method: (§1)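 Five library-drug doses in √10 steps were combined with a fixed anchor-drug dose, or a single drug was given alone, by pin tool to lung cancer cell lines in 1536-well plates the day after seeding. Nuclei were stained and counted after 5 days. Relative viability is the nuclei count in treated wells over that in vehicle wells, taken as the median of duplicate plates.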

HCC-827 = test system: HCC-827
Summary of the method: as §1

EKVX = test system: EKVX
Summary of the method: as §1

LU99A = test system: LU99A
Summary of the method: as §1

NCI-H2126 = test system: NCI-H2126
Summary of the method: as §1

LCLC-103H = test system: LCLC-103H
Summary of the method: as §1

SW 1573 = test system: SW 1573
Summary of the method: as §1

ChaGo-K-1 = test system: ChaGo-K-1
Summary of the method: as §1

LK-2 = test system: LK-2
Summary of the method: as §1

NCI-H1666 = test system: NCI-H1666
Summary of the method: as §1

NCI-H1975 = test system: NCI-H1975
Summary of the method: as §1

SW 900 = test system: SW 900
Summary of the method: as §1

PC-14 = test system: PC-14
Summary of the method: as §1

NCI-H2405 = test system: NCI-H2405
Summary of the method: as §1

EMC-BAC-2 = test system: EMC-BAC-2
Summary of the method: as §1

EPLC-272H = test system: EPLC-272H
Summary of the method: as §1

SK-LU-1 = test system: SK-LU-1
Summary of the method: as §1

HCC-78 = test system: HCC-78
Summary of the method: as §1

NCI-H23 = test system: NCI-H23
Summary of the method: as §1

NCI-H322M = test system: NCI-H322M
Summary of the method: as §1

NCI-H2342 = test system: NCI-H2342
Summary of the method: as §1

Q: For Cc1sc2c(c1C)C(c1ccc(Cl)cc1)=N[C@@H](CC(=O)OC(C)(C)C)c1nnc(C)n1-2 [JQ1] + Cc1cc(Nc2cc(N3CCN(C)CC3)nc(Sc3ccc(NC(=O)C4CC4)cc3)n2)n[nH]1 [Tozasertib] (partner 0.1 µM), which relative viability (RERF-LC-KJ; first compound 0.04 µM) is on record?
A: 0.496

Q: What about the relative viability (RERF-LC-KJ; first compound 0.1265 µM) of the same compound?
A: 0.299

Q: What about the relative viability (RERF-LC-KJ; first compound 0.4 µM) of the same compound?
A: 0.315

Q: What about the relative viability (RERF-LC-KJ; first compound 1.265 µM) of the same compound?
A: 0.222

Q: What about the relative viability (RERF-LC-KJ; first compound 4 µM) of the same compound?
A: 0.213

Q: And the relative viability (HCC-827; first compound 0.04 µM)?
A: 0.398

Q: And the relative viability (HCC-827; first compound 0.4 µM)?
A: 0.328

Q: What about the relative viability (HCC-827; first compound 1.265 µM) of the same compound?
A: 0.27

Q: What about the relative viability (HCC-827; first compound 4 µM) of the same compound?
A: 0.213

Q: What about the relative viability (EKVX; first compound 0.04 µM) of the same compound?
A: 0.317

Q: What about the relative viability (EKVX; first compound 0.1265 µM) of the same compound?
A: 0.361

Q: And the relative viability (EKVX; first compound 0.4 µM)?
A: 0.336

Q: What about the relative viability (EKVX; first compound 1.265 µM) of the same compound?
A: 0.247

Q: What about the relative viability (EKVX; first compound 4 µM) of the same compound?
A: 0.185

Q: What about the relative viability (LU99A; first compound 0.04 µM) of the same compound?
A: 0.277

Q: And the relative viability (LU99A; first compound 0.1265 µM)?
A: 0.304

Q: What about the relative viability (LU99A; first compound 0.4 µM) of the same compound?
A: 0.237

Q: What about the relative viability (LU99A; first compound 1.265 µM) of the same compound?
A: 0.188

Q: And the relative viability (LU99A; first compound 4 µM)?
A: 0.159

Q: What about the relative viability (NCI-H2126; first compound 0.04 µM) of the same compound?
A: 0.8

Q: And the relative viability (NCI-H2126; first compound 0.1265 µM)?
A: 0.849

Q: What about the relative viability (NCI-H2126; first compound 0.4 µM) of the same compound?
A: 0.607

Q: And the relative viability (NCI-H2126; first compound 1.265 µM)?
A: 0.419

Q: What about the relative viability (NCI-H2126; first compound 4 µM) of the same compound?
A: 0.31

Q: What about the relative viability (LCLC-103H; first compound 0.04 µM) of the same compound?
A: 0.429

Q: And the relative viability (LCLC-103H; first compound 0.1265 µM)?
A: 0.384

Q: What about the relative viability (LCLC-103H; first compound 0.4 µM) of the same compound?
A: 0.288

Q: And the relative viability (LCLC-103H; first compound 1.265 µM)?
A: 0.289

Q: And the relative viability (LCLC-103H; first compound 4 µM)?
A: 0.171

Q: What about the relative viability (SW 1573; first compound 0.04 µM) of the same compound?
A: 0.182

Q: And the relative viability (SW 1573; first compound 0.1265 µM)?
A: 0.137

Q: And the relative viability (SW 1573; first compound 0.4 µM)?
A: 0.181

Q: And the relative viability (SW 1573; first compound 1.265 µM)?
A: 0.141

Q: What about the relative viability (SW 1573; first compound 4 µM) of the same compound?
A: 0.16

Q: And the relative viability (ChaGo-K-1; first compound 0.04 µM)?
A: 0.205

Q: What about the relative viability (ChaGo-K-1; first compound 0.1265 µM) of the same compound?
A: 0.224

Q: What about the relative viability (ChaGo-K-1; first compound 0.4 µM) of the same compound?
A: 0.168

Q: And the relative viability (ChaGo-K-1; first compound 1.265 µM)?
A: 0.158

Q: What about the relative viability (ChaGo-K-1; first compound 4 µM) of the same compound?
A: 0.164

Q: What about the relative viability (LK-2; first compound 0.04 µM) of the same compound?
A: 0.18

Q: What about the relative viability (LK-2; first compound 0.1265 µM) of the same compound?
A: 0.192

Q: And the relative viability (LK-2; first compound 0.4 µM)?
A: 0.195

Q: And the relative viability (LK-2; first compound 1.265 µM)?
A: 0.151

Q: What about the relative viability (LK-2; first compound 4 µM) of the same compound?
A: 0.166

Q: And the relative viability (NCI-H1666; first compound 0.04 µM)?
A: 0.569

Q: What about the relative viability (NCI-H1666; first compound 0.1265 µM) of the same compound?
A: 0.534

Q: What about the relative viability (NCI-H1666; first compound 0.4 µM) of the same compound?
A: 0.484

Q: And the relative viability (NCI-H1666; first compound 1.265 µM)?
A: 0.36

Q: And the relative viability (NCI-H1666; first compound 4 µM)?
A: 0.354

Q: What about the relative viability (NCI-H1975; first compound 0.04 µM) of the same compound?
A: 0.75

Q: What about the relative viability (NCI-H1975; first compound 0.1265 µM) of the same compound?
A: 0.515

Q: What about the relative viability (NCI-H1975; first compound 0.4 µM) of the same compound?
A: 0.487

Q: What about the relative viability (NCI-H1975; first compound 1.265 µM) of the same compound?
A: 0.214

Q: What about the relative viability (NCI-H1975; first compound 4 µM) of the same compound?
A: 0.171

Q: And the relative viability (SW 900; first compound 0.04 µM)?
A: 0.647

Q: What about the relative viability (SW 900; first compound 0.1265 µM) of the same compound?
A: 0.641

Q: And the relative viability (SW 900; first compound 0.4 µM)?
A: 0.421

Q: And the relative viability (SW 900; first compound 1.265 µM)?
A: 0.297

Q: And the relative viability (SW 900; first compound 4 µM)?
A: 0.227

Q: What about the relative viability (PC-14; first compound 0.04 µM) of the same compound?
A: 0.593

Q: And the relative viability (PC-14; first compound 0.1265 µM)?
A: 0.385

Q: And the relative viability (PC-14; first compound 0.4 µM)?
A: 0.314

Q: What about the relative viability (PC-14; first compound 1.265 µM) of the same compound?
A: 0.125

Q: And the relative viability (PC-14; first compound 4 µM)?
A: 0.0518

Q: And the relative viability (NCI-H2405; first compound 0.04 µM)?
A: 0.716

Q: And the relative viability (NCI-H2405; first compound 0.1265 µM)?
A: 0.712

Q: And the relative viability (NCI-H2405; first compound 0.4 µM)?
A: 0.723

Q: What about the relative viability (NCI-H2405; first compound 1.265 µM) of the same compound?
A: 0.584

Q: What about the relative viability (NCI-H2405; first compound 4 µM) of the same compound?
A: 0.498

Q: What about the relative viability (EMC-BAC-2; first compound 0.04 µM) of the same compound?
A: 0.248

Q: What about the relative viability (EMC-BAC-2; first compound 0.1265 µM) of the same compound?
A: 0.235

Q: What about the relative viability (EMC-BAC-2; first compound 0.4 µM) of the same compound?
A: 0.221

Q: And the relative viability (EMC-BAC-2; first compound 1.265 µM)?
A: 0.174

Q: What about the relative viability (EMC-BAC-2; first compound 4 µM) of the same compound?
A: 0.174

Q: And the relative viability (EPLC-272H; first compound 0.04 µM)?
A: 0.418

Q: What about the relative viability (EPLC-272H; first compound 0.1265 µM) of the same compound?
A: 0.24

Q: And the relative viability (EPLC-272H; first compound 0.4 µM)?
A: 0.373

Q: And the relative viability (EPLC-272H; first compound 1.265 µM)?
A: 0.257

Q: What about the relative viability (EPLC-272H; first compound 4 µM) of the same compound?
A: 0.258

Q: What about the relative viability (SK-LU-1; first compound 0.04 µM) of the same compound?
A: 0.282

Q: What about the relative viability (SK-LU-1; first compound 0.1265 µM) of the same compound?
A: 0.27

Q: And the relative viability (SK-LU-1; first compound 0.4 µM)?
A: 0.249

Q: What about the relative viability (SK-LU-1; first compound 1.265 µM) of the same compound?
A: 0.0708

Q: What about the relative viability (SK-LU-1; first compound 4 µM) of the same compound?
A: 0.0741

Q: And the relative viability (HCC-78; first compound 0.04 µM)?
A: 0.474

Q: What about the relative viability (HCC-78; first compound 0.1265 µM) of the same compound?
A: 0.389

Q: What about the relative viability (HCC-78; first compound 0.4 µM) of the same compound?
A: 0.4

Q: And the relative viability (HCC-78; first compound 1.265 µM)?
A: 0.299

Q: And the relative viability (HCC-78; first compound 4 µM)?
A: 0.302

Q: What about the relative viability (NCI-H23; first compound 0.04 µM) of the same compound?
A: 0.263

Q: What about the relative viability (NCI-H23; first compound 0.1265 µM) of the same compound?
A: 0.253

Q: What about the relative viability (NCI-H23; first compound 0.4 µM) of the same compound?
A: 0.279

Q: And the relative viability (NCI-H23; first compound 1.265 µM)?
A: 0.147

Q: What about the relative viability (NCI-H23; first compound 4 µM) of the same compound?
A: 0.138

Q: What about the relative viability (NCI-H322M; first compound 0.04 µM) of the same compound?
A: 0.445

Q: And the relative viability (NCI-H322M; first compound 0.1265 µM)?
A: 0.443

Q: And the relative viability (NCI-H322M; first compound 0.4 µM)?
A: 0.427

Q: What about the relative viability (NCI-H322M; first compound 1.265 µM) of the same compound?
A: 0.362

Q: And the relative viability (NCI-H322M; first compound 4 µM)?
A: 0.375

Q: What about the relative viability (NCI-H2342; first compound 0.04 µM) of the same compound?
A: 0.65

Q: What about the relative viability (NCI-H2342; first compound 0.1265 µM) of the same compound?
A: 0.436

Q: What about the relative viability (NCI-H2342; first compound 0.4 µM) of the same compound?
A: 0.46

Q: And the relative viability (NCI-H2342; first compound 1.265 µM)?
A: 0.45

Q: What about the relative viability (NCI-H2342; first compound 4 µM) of the same compound?
A: 0.336
